From PubChem BioAssay AID1996
In brackets after ≈: the same amount, converted by molar mass.

Settings: buffer; pH 7.4; 200.0 µM

Row | SMILES | solubility kinetic [µg/mL]
1 | CC(C(=O)O)c1ccc(N2Cc3ccccc3C2=O)cc1 (stereo not given) | > 42.2
2 | Cc1cc(NC(=O)c2ccc(-c3ccccc3F)o2)no1 | 0.6 (≈ 2.1 µM)
3 | COc1ccc(-c2cc(C(F)(F)F)nc(N)n2)cc1 | 1.4 (≈ 5.2 µM)
4 | COc1ccc(CCNC(=O)c2ccnc(C(C)(C)C)c2)cc1OC | > 51.4
5 | O=C1NC(=O)C(c2ccccc2)(c2ccccc2)N1 | > 37.8
6 | CCC(=O)N(Cc1cc2ccccc2[nH]c1=O)c1ccc(OC)cc1 | > 50.5
7 | O=S(=O)(c1ccccc1C(F)(F)F)N1CCN(c2ncnc3sccc23)CC1 | 4.6 (≈ 10.7 µM)
8 | O=C(Cc1ccccc1)Oc1ccc([N+](=O)[O-])cc1 | > 38.6
9 | COc1ccc(NC(=O)CSc2nccn2Cc2ccco2)c(OC)c1 | 51.9 (≈ 139 µM)
10 | O=C(NC(=S)N1CCN(c2ccc(O)cc2)CC1)c1ccco1 | > 49.7
11 | O=C(Nc1ccc(Cn2ccnc2)cc1)c1cccc(C(F)(F)F)c1 | 1.6 (≈ 4.63 µM)
12 | COc1ccccc1CC(=O)N1CCN(c2ccccc2)CC1 | > 46.6
13 | O=C(Nc1ccc(Br)cn1)c1ccc2ccccc2c1 | < 0.4
14 | CC1CN(CCc2ccccc2)C(C)C/C1=N/O (stereo not given) | 32 (≈ 130 µM)
15 | Cc1nc(C)c(-c2csc(Nc3ccc(F)cc3)n2)s1 | 1.8 (≈ 5.89 µM)
16 | CCOC(=O)C(O)(c1ccc(NC(=O)NC)cc1)C(F)(F)F (stereo not given) | > 48
17 | O=C(COc1ccc(C(=O)c2ccccc2)cc1)Nc1cccnc1 | > 49.9
18 | CC(C)N1CC(COc2ccccc2Cl)OC1=O (stereo not given) | > 40.5
19 | O=C(NN1CCOCC1)c1ccccc1Br | > 42.8
20 | O=C(CN1CCOCC1)Nc1cccc([N+](=O)[O-])c1 | 36.3 (≈ 137 µM)

Row | SMILES | solubility kinetic [µg/mL]
21 | O=c1c2ccccc2ncn1-c1ccc([N+](=O)[O-])cc1Cl | 17 (≈ 56.3 µM)
22 | CC1Sc2ccc(C(=O)NCc3ccccn3)cc2NC1=O (stereo not given) | 45.6 (≈ 146 µM)
23 | O=C(c1ccccc1F)N1CCOCC1 | > 31.4
24 | Cc1ccc(CN2CCN(CC(=O)NCc3ccccc3)CC2)cc1 | 2.2 (≈ 6.52 µM)
25 | COCc1nnc(NC(=O)C2CC(=O)N(C3CCCCC3)C2)s1 (stereo not given) | > 50.8
26 | CCOc1cc(C(=O)Nc2cccnc2)cc(OCC)c1OCC | 47.3 (≈ 143 µM)
27 | O=C(/C=C/c1ccc(F)cc1)NC(=S)Nc1ccccc1 | 1.3 (≈ 4.33 µM)
28 | COc1ccc(CCC(C)NC2CCCCCCC2)cc1 (stereo not given) | 41.8 (≈ 144 µM)
29 | COc1ccc(CNC(=O)COC(=O)c2ccc(C(=O)c3ccccc3)cc2)cc1 | 7.4 (≈ 18.3 µM)
30 | COc1cccc(CNC(=O)c2ccncc2)c1 | 36.3 (≈ 150 µM)
31 | Fc1ccc(-n2cc(-c3ccccc3)[n+]3c2SCC3)cc1.[Br-] | > 56.6
32 | CC(=O)Nc1nc2ccc(S(=O)(=O)N3CCCC3)cc2s1 | 3.1 (≈ 9.53 µM)
33 | Cc1ccc(-c2nc(N)sc2C)cc1 | 30.2 (≈ 148 µM)
34 | CCC(CC)C(=O)NCc1cccnc1 | > 30.9
35 | CCOC(=O)CNC(=O)C12CC3CC(C1)CC(c1ccc(C)cc1)(C3)C2 | 3.9 (≈ 11 µM)
36 | COC(=O)c1ccc(COC(=O)CSCC(=O)Nc2ccc(C)cc2C)cc1 | 16 (≈ 39.9 µM)
37 | O=C(NCc1cccs1)C1CC(c2ccc(Cl)cc2)=NO1 (stereo not given) | 1.3 (≈ 4.05 µM)
38 | Cc1ccc(CN2CCN(c3ncccn3)CC2)c(C)c1 | 19.4 (≈ 68.7 µM)
39 | CC(CNC(=O)CCc1ccccc1)NC(=O)CCc1ccccc1 (stereo not given) | 19 (≈ 56.1 µM)
40 | CCc1ccc(CCC(=O)Nc2ccc(Br)cc2)o1 | 4.4 (≈ 13.7 µM)

Row | SMILES | solubility kinetic [µg/mL]
41 | CC1Oc2ccccc2N(CC(=O)NC2CCCCC2)C1=O (stereo not given) | > 45.4
42 | O=C(NCC(F)(F)F)c1ccc(S(=O)(=O)Nc2ccccc2N2CCCC2)cc1 | 15.4 (≈ 36 µM)
43 | COc1cc(/C=C(/C#N)C(=O)NCCCc2ccccc2)ccc1OCC(=O)O | 37.9 (≈ 96.1 µM)
44 | O=C1CSC(c2ccccc2)N1c1cccnc1 (stereo not given) | > 38.4
45 | COc1cccc(CNCC(=O)NC(=O)NC2CCCC2)c1.O=C(O)C(=O)O | > 59.3
46 | O=C(O)CNS(=O)(=O)c1ccc2c3c(cccc13)C(=O)N2 | > 45.9
47 | CCc1ccc(NC(=O)CCc2ccc(CC)o2)cc1 | 4 (≈ 14.7 µM)
48 | COc1ccc(NC(=O)C2=CC=CN3CCS(=O)(=O)N=C23)c(OC)c1 | 13.8 (≈ 38 µM)
49 | Cc1cc(C)c2c(=O)c(/C=C3\NC(=S)NC3=O)coc2c1 | 0.8 (≈ 2.66 µM)
50 | Cc1ccc(C(=O)NC2CCC(C)CC2)s1 (stereo not given) | 10.2 (≈ 43 µM)
51 | CC(C)CN1CCCC(N2CCN(c3cccc(Cl)c3)CC2)C1 (stereo not given) | 39.8 (≈ 118 µM)
52 | O=C(O)Cc1c(C(=O)O)[nH]c2ccc(C(=O)O)cc12 | > 39.5
53 | Cc1ccc2nc(NC(=O)c3ccccc3F)sc2c1 | < 0.3
54 | O=c1cc(O)c2sc3nc(C(F)(F)F)c4c(c3c2[nH]1)CCCCC4 | > 53.2
55 | O=C(Nc1cccc(Cl)c1)Nc1ccon1 | 10.7 (≈ 45 µM)
56 | O=C(NC1CC1)C1CCN(S(=O)(=O)c2ccc(Cl)cc2)CC1 | 41.7 (≈ 122 µM)
57 | CC1(CO)COC2(OC1)C(=O)Nc1ccccc12 (stereo not given) | > 37.4
58 | COCCSc1ccccc1C(=O)Nc1ccccc1C#N | > 46.9
59 | NC(=O)C1CCN(C(=O)c2ccc3ccccc3c2)CC1 | > 42.4
60 | O=C(NC(=S)Nc1cccnc1Cl)c1ccc(F)cc1 | 6.4 (≈ 20.7 µM)
